Counter-ions that a name gives are not always drawn.

One test has as its system HTT mRNA. The test can be described thus: Splicing RT-qPCR assay, HTT canonical (CJ) and alternative (AJ) junction mRNA. The test is classed as cell-based. Conditions: Homo sapiens, A673 or K562 cells, 24 hours; for IC50: decrease in canonical junction mRNA; for AC50: increase in alternative junction mRNA. The gist of the method:
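A673 (DMEM/10% FBS, plated 24 h before dosing) or K562 (IMDM/10% FBS) cells treated 24 h at 37 °C with 11-point 3-fold dilutions, top final 10 uM, DMSO ≤0.25%. Lysates analysed by one-step RT-qPCR for CJ and AJ isoforms, normalized to GAPDH/GUSB (K562) or PPIA (A673).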

For another test, the system named is HiBiT-tagged MYB protein. In words: HiBiT protein abundance assay, MYB (K562 HiBiT knock-in cells). Conditions: 24 hours. The test is classed as cell-based, human. The essentials:
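K562 cells with endogenous HiBiT knock-in tag, 10-point 3-fold dilutions (top 10 μM final, ≤0.25% DMSO), 24 h at 37 °C. Lytic Nano-Glo HiBiT luminescence, normalized to DMSO and unmodified K562 baselines; IC50 is concentration giving 50% protein abundance from four-parameter fit.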

By IC50 is commonly meant the concentration that inhibits the measured activity by half. A lower IC50 goes with inhibition by little substance. For orientation: AC50 means the midpoint of the concentration-response curve, whichever way the signal moves. In the test on HTT mRNA, `COc1ccc2c(N3CCNCC3)ccc(C(=O)Nc3cc(F)c4nc(C)cn4c3)c2n1` [Compound 169, N-{8-fluoro-2-methylimidazo[1,2-a]pyridin-6-yl}-2-methoxy-5-(piperazin-1-yl)quinoline-8-carboxamide] registered an IC50 of 1000 to 10000 nM and an AC50 of 1000 to 10000 nM. Also, the IC50 in the test with HiBiT-tagged MYB protein was under 100 nM.

In the test with HTT mRNA, `Cc1cn2cc(NC(=O)c3ccc(N4C[C@@H](C)N[C@@H](C)C4)c4ccnnc34)nc(C)c2n1` [Compound 172, N-{2,8-dimethylimidazo[1,2-a]pyrazin-6-yl}-5-[(3R,5S)-3,5-dimethylpiperazin-1-yl]cinnoline-8-carboxamide] showed an IC50 of over 10000 nM and an AC50 of over 10000 nM. This molecule also registered an IC50 with HiBiT-tagged MYB protein of under 100 nM.

Consider `COCCOc1ccc2c(N3CCNCC3)ccc(C(=O)Nc3cc(F)c4nc(C)cn4c3)c2n1` [Compound 173, N-{8-fluoro-2-methylimidazo[1,2-a]pyridin-6-yl}-2-(2-methoxyethoxy)-5-(piperazin-1-yl)quinoline-8-carboxamide], for which, in the test on HTT mRNA, the IC50 is over 10000 nM and the AC50 is over 10000 nM. The IC50 in the test with HiBiT-tagged MYB protein was under 100 nM.

In the test on HTT mRNA, `COc1cc(NC(=O)c2ccc(N3CCNCC3)c3ccnnc23)cn2cc(C)nc12` [Compound 176, N-{8-methoxy-2-methylimidazo[1,2-a]pyridin-6-yl}-5-(piperazin-1-yl)cinnoline-8-carboxamide trifluoroacetate] registered an IC50 of over 10000 nM and an AC50 of over 10000 nM. The IC50 in the test with HiBiT-tagged MYB protein is 100 to 1000 nM.

In the test with HTT mRNA, `Cc1cn2cc(NC(=O)c3ccc(N4CCNCC4)c4ccnnc34)[nH]c(=O)c2n1` [Compound 177, N-{2-methyl-8-oxo-7H-imidazo[1,2-a]pyrazin-6-yl}-5-(piperazin-1-yl)cinnoline-8-carboxamide trifluoroacetic acid salt] came in with an IC50 of 100 to 1000 nM and an AC50 of 100 to 1000 nM. Also, the concentration for half-maximal inhibition (IC50) in the test on HiBiT-tagged MYB protein fell in the range of 100 to 1000 nM.

As to `Cc1nc(NC(=O)c2ccc(N3CCNCC3)c3ccnnc23)cc2cn(C)nc12` [Compound 178, N-{2,7-dimethylpyrazolo[3,4-c]pyridin-5-yl}-5-(piperazin-1-yl)cinnoline-8-carboxamide], in the test on HTT mRNA, the IC50 was over 10000 nM and the AC50 is over 10000 nM. The IC50 in the test with HiBiT-tagged MYB protein is 100 to 1000 nM.

Consider `COc1nc(NC(=O)c2ccc(N3CCNCC3)c3ccnnc23)cn2cc(C)nc12` [Compound 179, N-{8-methoxy-2-methylimidazo[1,2-a]pyrazin-6-yl}-5-(piperazin-1-yl)cinnoline-8-carboxamide], for which, in the test on HTT mRNA, the IC50 lay in the range of 1000 to 10000 nM and the AC50 fell in the range of 1000 to 10000 nM. Also, the IC50 with HiBiT-tagged MYB protein was under 100 nM.

As to `Cc1c(O)c(NC(=O)c2ccc(N3CCNCC3)c3ccnnc23)cc2cn(C)nc12` [Compound 181, N-(6-hydroxy-2,7-dimethylindazol-5-yl)-5-(piperazin-1-yl)cinnoline-8-carboxamide], in the test on HTT mRNA, the IC50 is over 10000 nM and the AC50 is over 10000 nM. Also, in the test with HiBiT-tagged MYB protein, the IC50 was in the range of 1000 to 10000 nM.

With `Cc1cn2cc(NC(=O)c3ccc(N4CCNCC4)c4ccnnc34)cc(C(C)O)c2n1` (stereo not drawn) [Compound 182, N-[8-(1-hydroxyethyl)-2-methylimidazo[1,2-a]pyridin-6-yl]-5-(piperazin-1-yl)cinnoline-8-carboxamide trifluoroacetate], in the test with HTT mRNA, the IC50 is over 10000 nM and the AC50 is over 10000 nM. This molecule came in with an IC50 in the test on HiBiT-tagged MYB protein of over 10000 nM.

In the test on HTT mRNA, `COc1cc2c(N3CCNCC3)ccc(C(=O)Nc3cc(F)c4nc(C)cn4c3)c2nn1` [Compound 183, N-{8-fluoro-2-methylimidazo[1,2-a]pyridin-6-yl}-3-methoxy-5-(piperazin-1-yl)cinnoline-8-carboxamide] showed an IC50 of 1000 to 10000 nM and an AC50 of 1000 to 10000 nM. Also, the IC50 with HiBiT-tagged MYB protein was under 100 nM.

With `Cc1cn2cc(NC(=O)c3ccc(N4C[C@@H](C)N[C@@H](C)C4)c4nccnc34)cc(F)c2n1` [Compound 186, 8-(3,5-dimethylpiperazin-1-yl)-N-{8-fluoro-2-methylimidazo[1,2-a]pyridin-6-yl}quinoxaline-5-carboxamide], in the test with HTT mRNA, the IC50 is 1000 to 10000 nM and the AC50 lay in the range of 1000 to 10000 nM. The molecule also showed an IC50 in the test with HiBiT-tagged MYB protein of under 100 nM.

As to `Cc1cn2cc(NC(=O)c3ccc(N4CCN[C@@H](C)C4)c4nccnc34)cc(F)c2n1` [Compound 187, N-{8-fluoro-2-methylimidazo[1,2-a]pyridin-6-yl}-8-(3-methylpiperazin-1-yl) quinoxaline-5-carboxamide], in the test on HTT mRNA, the IC50 lay in the range of 1000 to 10000 nM and the AC50 lay in the range of 1000 to 10000 nM. The same molecule displayed an IC50 in the test on HiBiT-tagged MYB protein of under 100 nM.

Turning to `Cc1cn2cc(NC(=O)c3ccc(N4CCC5(CCN5)CC4)c4nccnc34)cc(F)c2n1` [Compound 189, 8-{1,7-diazaspiro[3.5]nonan-7-yl}-N-{8-fluoro-2-methylimidazo[1,2-a]pyridin-6-yl}quinoxaline-5-carboxamide], in the test with HTT mRNA, the IC50 fell in the range of 100 to 1000 nM and the AC50 is 100 to 1000 nM. The IC50 with HiBiT-tagged MYB protein is under 100 nM.

In the case of `CNC1CCN(c2ccc(C(=O)Nc3cc(F)c4nc(C)cn4c3)c3nccnc23)C1` (stereo not drawn) [Compound 190, N-{8-fluoro-2-methylimidazo[1,2-a]pyridin-6-yl}-8-[3-(methylamino)pyrrolidin-1-yl]quinoxaline-5-carboxamide], the IC50 in the test on HTT mRNA fell in the range of 1000 to 10000 nM; in the test on HiBiT-tagged MYB protein, 100 to 1000 nM. Also, the AC50 in the test with HTT mRNA lay within 1000 to 10000 nM.

In the test with HTT mRNA, `CCNC1CCN(c2ccc(C(=O)Nc3cc(F)c4nc(C)cn4c3)c3nccnc23)CC1` [Compound 191, 8-[4-(ethylamino)piperidin-1-yl]-N-{8-fluoro-2-methylimidazo[1,2-a]pyridin-6-yl}quinoxaline-5-carboxamide] showed an IC50 of 100 to 1000 nM and an AC50 of 100 to 1000 nM. Further, the IC50 in the test with HiBiT-tagged MYB protein was under 100 nM.

In the test with HTT mRNA, `CNCC1CCN(c2ccc(C(=O)Nc3cc(F)c4nc(C)cn4c3)c3nccnc23)CC1` [Compound 192, N-{8-fluoro-2-methylimidazo[1,2-a]pyridin-6-yl}-8-{4-[(methylamino)methyl]piperidin-1-yl}quinoxaline-5-carboxamide trifluoroacetate] registered an IC50 of 1000 to 10000 nM and an AC50 of 1000 to 10000 nM. For the same molecule, the IC50 in the test with HiBiT-tagged MYB protein is 1000 to 10000 nM.

Regarding `CNC1CCN(c2ccc(C(=O)Nc3cc(F)c4nc(C)cn4c3)c3nc(C)ccc23)C1` (stereo not drawn) [Compound 196, N-{8-fluoro-2-methylimidazo[1,2-a]pyridin-6-yl}-2-methyl-5-[3-(methylamino)pyrrolidin-1-yl]quinoline-8-carboxamide 2,2,2-trifluoroacetate], in the test with HTT mRNA, the IC50 is 1000 to 10000 nM and the AC50 was in the range of 1000 to 10000 nM. Further, in the test with HiBiT-tagged MYB protein, the IC50 is under 100 nM.

Consider `Cc1cnc2c(N3CCNCC3)ccc(C(=O)Nc3cc(F)c4nc(C)cn4c3)c2n1` [Compound 197, N-{8-fluoro-2-methylimidazo[1,2-a]pyridin-6-yl}-3-methyl-8-(piperazin-1-yl)quinoxaline-5-carboxamide; trifluoroacetic acid], for which, in the test on HTT mRNA, the IC50 was in the range of 1000 to 10000 nM and the AC50 was in the range of 1000 to 10000 nM. The same molecule showed an IC50 in the test with HiBiT-tagged MYB protein of under 100 nM.

Turning to `COCCOc1cc2c(N3CCNCC3)ccc(C(=O)Nc3cc(F)c4nc(C)cn4c3)c2nn1` [Compound 199, N-{8-fluoro-2-methylimidazo[1,2-a]pyridin-6-yl}-3-(2-methoxyethoxy)-5-(piperazin-1-yl)cinnoline-8-carboxamide], in the test on HTT mRNA, the IC50 was over 10000 nM and the AC50 was over 10000 nM. Further, in the test with HiBiT-tagged MYB protein, the IC50 was under 100 nM.

In the test on HTT mRNA, `Cc1cnc2c(N3CCC(N(C)C)CC3)ccc(C(=O)Nc3cc(F)c4nc(C)cn4c3)c2n1` [Compound 200, 8-[4-(dimethylamino)piperidin-1-yl]-N-{8-fluoro-2-methylimidazo[1,2-a]pyridin-6-yl}-3-methylquinoxaline-5-carboxamide] displayed an IC50 of 100 to 1000 nM and an AC50 of 100 to 1000 nM. This molecule also came in with an IC50 with HiBiT-tagged MYB protein of under 100 nM.

Take `CNC1CCN(c2ccc(C(=O)Nc3cc(F)c4nc(C)cn4c3)c3nc(OC)cnc23)C1` (stereo not drawn) [Compound 202, N-{8-fluoro-2-methylimidazo[1,2-a]pyridin-6-yl}-3-methoxy-8-[3-(methylamino)pyrrolidin-1-yl]quinoxaline-5-carboxamide; bis(trifluoroacetic acid)]: in the test on HTT mRNA, the IC50 is over 10000 nM and the AC50 is over 10000 nM. Also, the 50% inhibitory concentration (IC50) in the test with HiBiT-tagged MYB protein is under 100 nM.

In the test on HTT mRNA, `CN[C@@H]1CCN(c2ccc(C(=O)Nc3cc(F)c4nc(C)cn4c3)c3nc(OC)cnc23)C1` [Compound 204, (R)—N-{8-fluoro-2-methylimidazo[1,2-a]pyridin-6-yl}-3-methoxy-8-[3-(methylamino)pyrrolidin-1-yl]quinoxaline-5-carboxamide; trifluoroacetic acid] returned an IC50 of over 10000 nM and an AC50 of over 10000 nM. Moreover, the IC50 with HiBiT-tagged MYB protein lay within 100 to 1000 nM.

On to `COc1cnc2c(N3C[C@@H](C)N[C@@H](C)C3)ccc(C(=O)Nc3cc(F)c4nc(C)cn4c3)c2n1` [Compound 205, 8-[(3R,5S)-3,5-dimethylpiperazin-1-yl]-N-{8-fluoro-2-methylimidazo[1,2-a]pyridin-6-yl}-3-methoxyquinoxaline-5-carboxamide; trifluoroacetic acid], for which the IC50 with HTT mRNA is 100 to 1000 nM; in the test with HiBiT-tagged MYB protein it was under 100 nM. In the test on HTT mRNA, this molecule gave an AC50 of 100 to 1000 nM.

In the test on HTT mRNA, `COc1cnc2c(N3CCC(N(C)C)CC3)ccc(C(=O)Nc3cc(F)c4nc(C)cn4c3)c2n1` [Compound 206, 8-[4-(dimethylamino)piperidin-1-yl]-N-{8-fluoro-2-methylimidazo[1,2-a]pyridin-6-yl}-3-methoxyquinoxaline-5-carboxamide; trifluoroacetic acid] returned an IC50 of 100 to 1000 nM and an AC50 of 100 to 1000 nM. In the test on HiBiT-tagged MYB protein, this molecule came in with an IC50 of under 100 nM.
